Results published in US9328369B2, “Process for production of useful substance, and surfactant for use in the process” (priority 2009, dated 2016).

Assays:
Escherichia coli(ε) = assay: Production by secretion in microbial culture system, protease expressing strain (Table 5); format: cell-based; conditions: Example 12, surfactant 1 wt %
Description: A subtilisin Carlsberg gene of a Bacillus licheniformis was amplified by the PCR method using primers 7 and 8 (Table 4). After being treated with restriction enzymes NcoI and BamHI, a PCR amplified fragment was bound to an NcoI restriction enzyme site and a BamHI restriction enzyme site of a pET-22b plasmid (product of Novagen). Then, the plasmid was transformed into a BL21 (DE3) Escherichia coli strain (product of Novagen) to form Escherichia coli (ε) that expresses protease.
Overnight cultures (1 ml) of Escherichia coli (δ) obtained in Production Example 4 and Escherichia coli (ε) obtained in Production Example 5 were respectively prepared as Comparative Example 2 and Comparative Example 4. An amount of 0.5 ml of each was inoculated in 5 ml of an LB culture solution (containing 100 mg/L of ampicillin) and was shake-cultured at 30° C. for 3 hours. In this manner, pre-culture solutions were prepared. […] The whole protein in the culture solution was analyzed by SDS-PAGE. Based on the obtained amount of the protein band, the recombinant protein was quantified.
Performance of this processes for several times clarified the proportional relationship between the turbidity of the culture solution and the dried cell density. Therefore, the dried cell density was obtained from the measured turbidity in each of Comparative Examples 2 to 4 and Examples 2 to 14. […]

Escherichia coli (β) = assay: Shake culture with surfactant, time course of protein production (Example 1, FIG. 1); format: cell-based; conditions: surfactant 1%; after 21 hours from the initiation
Experimental: Escherichia coli (β) was inoculated in 10 mL of an LB culture medium and was shake-cultured at 37° C. overnight. In this manner, a culture solution was prepared. The strains were collected using a centrifuge and the collected Escherichia coli (β) strain was resuspended in 10 ml of a TB culture medium (product of Difco). Shake culture at 37° C. induced expression of torA. Sampling was performed after 0, 0.5, 1, and 2 hours from the start of the shake culture, and harvesting using a centrifuge was carried out for each sampled solution. Collected bacterial cells were suspended in a buffer solution (50 mM Tris (pH 7.5), 100 mM NaCl) and ultrasonic fragmentation was performed (200 W, 10 minutes). Then, an SDS-PAGE analysis was performed to quantify the produced recombinant protein band. Based on the obtained data, the protein amount per gram of the bacterial cell was calculated and a graph was constructed.
The same processes were carried out as in Comparative Example 1 except that the surfactant A-7 was used as the surfactant (A) for the expression induction in an amount of 1% on the basis of the weight of the culture solution, and that sampling was performed after 0, 2, 4, 15, 19, and 21 hours from the initiation and analysis was performed on the supernatants of the centrifuged samples. A graph was similarly constructed.

Substance	Turbidity (Escherichia coli(ε))	Dried cell density (Escherichia coli(ε); obtained from turbidity)	Quantitative value of produced recombinant protein (Escherichia coli(ε); supernatant, SDS-PAGE)	Dried cell density of the culture solution (Escherichia coli (β))
Cured palm oil fatty acid amidopropyl dimethyl aminoacetate betaine [A-6]	95	26.6 g/L	0.37 g/L	–
Sodium cocaminopropionate [A-7]	–	–	–	1.72 g/L
